Test results as given in patent publication US5051406A, “Pharmaceutical composition using albumin as a carrier and process for producing the same” (Nippon Hypox Laboratories Incorporated, priority 1987, dated 1991).

What was measured:
Format in all cases: in vivo, male rats of Wistar strain
[1] = tested on: stomach mucous membrane (ulcer); test: Formation of stomach ulcer by Indometacin-albumin composition; conditions: rat, fasted, oral, 20 mg/kg in terms of Indometacin, 7 hours
Experimental: It is known that while non-steroidal anti-inflammatory agents show a strong anti-inflammatory action to inflammation-affected parts, they cause hemorrhage and ulcer to the digestive system.
The test was conducted according to the method by Okabe et al. (J. Jap. Pharmacol. Vol. 29, 670 (1979)). That is, two groups of male rats of Wistar strain each weighing 180-200 g (one group consisted of 8 such rats) were fasted for about 18 hours. As test samples, there were used suspensions obtained by suspending the Indometacin-albumin composition (Indometacin 3 g albumin 30 g) obtained in Example 23 or 24 (described later) in a 1% carboxymethyl cellulose sodium solution (hereinafter referred to as 1% CMCNa) in an amount of 20 mg/kg in terms of Indometacin. These suspensions were orally administered to the rats at a proportion of 0.5 ml/100 g (rat). As a control sample, a suspension obtained by suspending an Indometacin powder in 1% CMCNa in an amount of 20 mg/kg was administered similarly. After 7 hours from the administration, all the rats were sacrificed under etherization. 8 ml of a 1% aqueous buffered formalin solution was injected into the stomach of each rat. […] Thereafter, the stomach was incised along the greater curvature and the lesioned portions (ulcer portions) generated in the mucous membrane were measured for their major axes (mm) under a stereoscopic microscope. […]

[2] = tested on: carragheenin induced plantar edema; test: Anti-inflammatory action, carragheenin induced plantar edema method; conditions: rat, oral, 5 mg/kg in terms of Indometacin
Experimental: The anti-inflammatory action of the Indometacin-albumin composition can also be proven by the following test by carragheenin induced plantar edema method.
A wide-mouthed glass container filled with water was placed on an electronic even balance. Into the water was immersed the sole of the right hind leg of rat up to the borders of the hair, and the resulting weight increase was measured to obtain a volume of the sole.
Three groups of male rats of Wistar strain each weighing 150-180 g (one group consisted of 6 such rats) were fasted for 18 hours and then measured for their sole volumes. These volumes were each taken as a sole volume before administration.
As test samples, there were used two suspensions, i.e. a suspension obtained by suspending the Indometacin-egg albumin composition (Indometacin 3 g / egg albumin 30 g) obtained in Example 24 (described later) in 1% CMCNa in an amount of about 5 mg/kg in terms of Indometacin and a suspension obtained by suspending an Indometacin powder in 1% CMCNa in an amount of 5 mg/kg in terms of Indometacin. These suspensions were orally administered to two sample groups at a proportion of 0.5 ml/100 g (rat). At 30 minutes after the oral administration, 0.1 ml of a physiological saline solution containing 1% of λ-carragheenin was subcutaneously administered to each rat at the sole of right hind leg and, immediately, 5 ml of water was administered orally. In 1, 3 and 5 hours after the administration of the 1% λ-carragheenin solution, the sole volume of each rat was measured. Then, the swelling percent of each individual rat, the average swelling percent of each group and the corresponding inhibition ratio were calculated according to the following formulae.
As a control sample, there was used 1% CMCNa, and it was orally administered to one control group at a proportion of 0.5 ml/100 g (rat). The results were compared with those of the sample-administered groups.
Swelling percent (%)=((B-A).div.A)×100
Inhibition ratio (%)=((C-D).div.C)×100
A: Sole volume before administration
B: Sole volume after administration
C: Average swelling percent of control group
D: Average swelling percent of sample group

[3] = Absorption of nalidixic acid-albumin composition by gastrointestinal tract (oral, rat serum level)
Experimental: It was made clear from the following test that the nalidixic acid-albumin composition (nalidixic acid content: 8.9%) obtained according to the present invention improves the absorption of nalidixic acid administered after meals.
Male rats of Wistar strain each weighing about 290 g obtained from Sankyo Labo. were used under a satiety condition.
The administration amount was 50 mg/kg in terms of nalidixic acid. A composition was administered in a form of its suspension in 1 ml of water, using an oral sonde. About 0.2 ml of blood was drawn from the eyeground of rat using a capillary (Drummond, 0.1 ml) and then centrifuged to obtain a serum.
The serum was mixed with an equal volume of methanol to deproteinize the serum. The determination for the deproteinized serum was conducted according to high performance liquid chromatography.
Column: ODS-80TM manufactured by TOYO SODA, 4.6 mm×15 cm
Mobile phase: Acetonitrile: 50 mM citric acid solution: 1 M ammonium acetate =35 : 64 : 1
Detection wavelength: 258 nm
Column temperature: Room temperature
The calibration curve was obtained by adding known nalidixic acid to a blank serum and subjecting the mixture to the same procedure as for the sample.

| Compound | Incidence [1] | Ulcer index (Mean ± S.E.) ([1]; total of major axes (mm) of ulcers) | Swelling percent, 1 hr ([2]; 1 hr after λ-carragheenin) | Swelling percent, 3 hr ([2]; 3 hr after λ-carragheenin) | Swelling percent, 5 hr ([2]; 5 hr after λ-carragheenin) | Inhibition ratio, 1 hr ([2]; vs 1% CMCNa control, 1 hr after λ-carragheenin) | Inhibition ratio, 3 hr ([2]; vs 1% CMCNa control, 3 hr after λ-carragheenin) | Inhibition ratio, 5 hr ([2]; vs 1% CMCNa control, 5 hr after λ-carragheenin) | AUC at 8 h ([3]; 50 mg/kg in terms of nalidixic acid, 0-8 hours, read-out: area below the blood concentration-time curve (AUC) between 0 and 8 hours) | Tmax ([3]; 50 mg/kg in terms of nalidixic acid, satiety condition, read-out: time at which blood concentration of nalidixic acid reached the maximum) | Cmax ([3]; same amount (50 mg/kg), satiety condition, read-out: maximum blood concentration of nalidixic acid (powder, unit printed as μg)) |
| --- | --- | --- | --- | --- | --- | --- | --- | --- | --- | --- | --- |
| COc1ccc2c(c1)c(CC(=O)O)c(C)n2C(=O)c1ccc(Cl)cc1 [Indometacin powder, Indometacin] | 100.0% | 341.7 ± 49.9 | 10.3% | 8.4% | 8.5% | 39.4% | 52.5% | 60.5% |  |  |  |
| CCn1cc(C(=O)O)c(=O)c2ccc(C)nc21 [nalidixic acid powder, nalidixic acid] |  |  |  |  |  |  |  |  | 34600 ng·h/mL | 3 h | ~7000 ng/mL |
